GI50 and TGI data for eight compounds are collected here from PubChem BioAssay (NCI).

Some test systems named below: DU-145 prostate; HCT-15 colon; KM12 colon; RXF 393 renal; HOP-62 NSCLC; SN12C renal; MALME-3M melanoma; ACHN renal; SNB-75 CNS; HL-60(TB) leukemia.
Holding throughout (assay): NCI tumour cell line growth inhibition, 48 h

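Briefly, cells in 96-well plates were exposed to five compound concentrations for 48 h, and endpoints were estimated by linear interpolation. Here, GI50 denotes the concentration required for 50% inhibition of growth. TGI is the concentration that stops growth completely.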 Bounds are passed on as bounds.

Consider `CC(C)C[C@@H]1NC(=O)[C@@H]2CCCN2C(=O)[C@@H]2CCCN2C(=O)[C@H](CC(C)C)NC(=O)[C@H](CO)NC(=O)[C@H](CCCCN)NC(=O)[C@H]([C@H](C)O)NC(=O)[C@@H]2CCCC[C@@H](NC1=O)C(=O)N[C@@H](Cc1ccccc1)C(=O)N1CCC[C@H]1C(=O)N[C@@H](CC(=O)O)C(=O)NCC(=O)N[C@@H](CCCN=C(N)N)C(=O)N2`, for which the GI50 with DU-145 prostate, with HCT-15 colon, in the test with KM12 colon, in the test with RXF 393 renal, in the test on HOP-62 NSCLC and with SN12C renal was more than 50 µM in each case. The GI50 in the test with MALME-3M melanoma and with ACHN renal was more than 50 µM each time. The TGI with DU-145 prostate, with HCT-15 colon, in the test with KM12 colon, in the test with RXF 393 renal, in the test on HOP-62 NSCLC and in the test with SN12C renal was more than 50 µM in each case. Besides, the TGI with MALME-3M melanoma and in the test with ACHN renal was more than 50 µM each time.

For `CC(C)CCc1c(Cl)nc(Cl)nc1Cl`, the TGI is 31.1 µM in the test with DU-145 prostate; more than 100 µM in the test on HCT-15 colon; 11.5 µM in the test on RXF 393 renal; 30.4 µM in the test on HOP-62 NSCLC; 22.3 µM with SNB-75 CNS; 57.9 µM in the test with SN12C renal. The results for the TGI with HL-60(TB) leukemia, in the test on MALME-3M melanoma and with ACHN renal were more than 100 µM, 50.7 µM and 92.3 µM, respectively.

As for `COc1ccc2nc(C)cc(Nc3ccccc3O)c2c1`, the GI50 with DU-145 prostate is 45.3 µM; in the test on HCT-15 colon, 32.4 µM; with KM12 colon, 35.9 µM; in the test with HOP-62 NSCLC it was 49.3 µM; in the test on SNB-75 CNS, 69.9 µM; in the test on SN12C renal, 38.2 µM. The GI50 is 21 µM in the test on HL-60(TB) leukemia, 27.3 µM in the test with MALME-3M melanoma and 32.1 µM with ACHN renal. Further, the TGI in the test on DU-145 prostate, with HCT-15 colon, with KM12 colon, in the test on HOP-62 NSCLC, in the test with SNB-75 CNS and in the test on SN12C renal was more than 100 µM each time. The results for the TGI in the test on HL-60(TB) leukemia, in the test on MALME-3M melanoma and with ACHN renal were 48 µM, 61.2 µM and more than 100 µM, respectively.

In the case of `CC1/C(=N/Nc2ccc([N+](=O)[O-])cc2)CC2C3(C)CCC2(C(C)C(=O)O)C(=O)C13` (stereo not drawn), the GI50 in the test on DU-145 prostate is more than 100 µM; with HCT-15 colon it was 4.22 µM; in the test on KM12 colon, 11.3 µM; with RXF 393 renal, 3.18 µM; in the test with HOP-62 NSCLC, 95 µM; in the test with SNB-75 CNS, more than 100 µM. For the same compound, the GI50 was 60.9 µM with SN12C renal, more than 100 µM in the test on MALME-3M melanoma and 6.33 µM in the test on ACHN renal. Moreover, the TGI in the test with DU-145 prostate, in the test with HCT-15 colon, with KM12 colon, with RXF 393 renal, with HOP-62 NSCLC and in the test with SNB-75 CNS was more than 100 µM in each case. The TGI in the test with SN12C renal, in the test with MALME-3M melanoma and with ACHN renal was more than 100 µM throughout.

Regarding `O=C1C(=O)c2ccccc2C(O)=C1CCCCCCCCC1CCCCC1`, the TGI came to 33.4 µM in the test on DU-145 prostate; 19.2 µM in the test on HCT-15 colon; 23.1 µM in the test on KM12 colon; 36.7 µM with HOP-62 NSCLC; 22.9 µM with SNB-75 CNS; 22.3 µM in the test on SN12C renal. Besides, the values for the TGI with MALME-3M melanoma and in the test on ACHN renal were 10.2 µM and 15.6 µM, respectively.

As to `COC(=O)c1cc2oc(/C=C3\SC(=S)N(NC(C)=O)C3=O)cc2n1Cc1ccccc1`, the GI50 is 1.7 µM in the test with DU-145 prostate; 1.54 µM in the test with HCT-15 colon; 2.95 µM with KM12 colon; 2.81 µM with RXF 393 renal; 9.72 µM with HOP-62 NSCLC; 7.67 µM in the test with SNB-75 CNS. Besides, the GI50 in the test with SN12C renal is 11.3 µM; in the test with HL-60(TB) leukemia it was 2.14 µM; in the test with ACHN renal, 3.68 µM. For the same compound, the TGI was 9.85 µM with DU-145 prostate; 8.56 µM with HCT-15 colon; 12.8 µM with KM12 colon; 16.8 µM in the test with RXF 393 renal; 20.7 µM in the test on HOP-62 NSCLC; 25.4 µM with SNB-75 CNS. Besides, the results for the TGI in the test with SN12C renal, with HL-60(TB) leukemia and with ACHN renal were 20.8 µM, 13.8 µM and 10.5 µM, respectively.

In the case of `CC1=C(C(=O)Nc2ccc(F)c(Cl)c2)C(c2cccc(Oc3ccccc3)c2)NC(=O)N1` (stereo not drawn), the GI50 in the test with DU-145 prostate is 13.4 µM; in the test on HCT-15 colon it was 15.4 µM; in the test with KM12 colon, 14.9 µM; with RXF 393 renal it was 14.4 µM; in the test on HOP-62 NSCLC it was 15.4 µM; with SNB-75 CNS, 7.53 µM. Also, the GI50 was 16.1 µM in the test with SN12C renal, 8.07 µM with HL-60(TB) leukemia and 15.1 µM in the test on ACHN renal. Also, the TGI was found to be 26.4 µM in the test with DU-145 prostate; 28.9 µM in the test on HCT-15 colon; 34.3 µM with KM12 colon; 32.1 µM in the test on RXF 393 renal; 29.2 µM with HOP-62 NSCLC; 20.4 µM in the test with SNB-75 CNS. Also, the TGI in the test on SN12C renal came out at 32.8 µM; with HL-60(TB) leukemia, 24.7 µM; in the test with ACHN renal it was 28.4 µM.

With `CN1CCn2c(c(Sc3ccc(C(=O)NO)cc3)c3ccccc32)C1=O`, the GI50 with DU-145 prostate is 2.97 µM; in the test with HCT-15 colon, 2.73 µM; in the test with KM12 colon, 1.85 µM; in the test on RXF 393 renal, 1.62 µM; with HOP-62 NSCLC, 1.88 µM; with SNB-75 CNS, 1.27 µM. For the same compound, the results for the GI50 in the test on SN12C renal, with HL-60(TB) leukemia and in the test on ACHN renal were 2.13 µM, 3.16 µM and 2.63 µM, respectively. In addition, the TGI was 12.8 µM in the test on DU-145 prostate; 14.3 µM in the test on HCT-15 colon; 3.92 µM with KM12 colon; 3.17 µM in the test with RXF 393 renal; 3.87 µM in the test on HOP-62 NSCLC; 2.99 µM with SNB-75 CNS. The results for the TGI with SN12C renal, in the test with HL-60(TB) leukemia and in the test with ACHN renal were 5.58 µM, 32 µM and 8.72 µM, respectively.
